# Data reported in PMC10812132 (Journal of biomolecular screening, 2010).
# Several values for one entry are separate records, joined by “and”; a condition that tells them apart may be missing. Identical values can stand only once.
# Assays:
# [1] = test system: Influenza A/Vietnam/1203/2004 (H5N1); format: cell-based, influenza A virus; settings: 72 h
# [2] = test system: influenza A/Brisbane/59/2007 (H1N1) virus; format: cell-based
Structure (SMILES),SI values (SI = IC50/EC50) of screening hits [1],Reduction in M1 RNA levels vs no-drug infected MDCK cells [2]
O=S(=O)(O)c1cc(O)c(N=Nc2ccc3cccc(S(=O)(=O)O)c3c2O)c2ccccc12 [SR 22859],> 13.8,
O=C(Nc1c(-c2ccccc2)nc2sccn12)c1ccccc1 [compound 786409],> 94.6,
CN(C)c1cccc(C(=O)Nc2ccc3nc4n(c(=O)c3c2)CCCCC4)c1 [compound 9551353],> 3.5,
NC(=O)c1ncn([C@@H]2O[C@H](CO)[C@@H](O)[C@H]2O)n1 [ribavirin],,1.3 fold and 1.9 fold
